From PubChem BioAssay (NCI)
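Where inhibition never reached the appropriate level, the endpoint shown equals the highest concentration tested. Otherwise, values were interpolated linearly from a five-concentration, 48-hour dose response in 96-well plates. TGI is the concentration that stops growth completely.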

Assays:
Assay in all cases: NCI tumour cell line growth inhibition, 48 h
[1] = tested on: LXFL 529 NSCLC
[2] = tested on: 786-0 renal
[3] = tested on: CCRF-CEM leukemia
[4] = tested on: HOP-62 NSCLC
[5] = tested on: RXF-631 renal
[6] = tested on: NCI-H23 lung
[7] = tested on: NCI-H460 lung
[8] = tested on: SK-MEL-2 melanoma
[9] = tested on: HL-60(TB) leukemia
[10] = tested on: DMS 273 small cell lung
[11] = tested on: EKVX NSCLC
[12] = tested on: HOP-92 NSCLC
[13] = tested on: SK-OV-3 ovarian
[14] = tested on: HCC-2998 colon
[15] = tested on: SR leukemia
[16] = tested on: SF-295 CNS
[17] = tested on: MOLT-4 leukemia
[18] = tested on: DLD-1 colon
[19] = tested on: SNB-78 CNS
[20] = tested on: SK-MEL-5 melanoma
[21] = tested on: KM12 colon
[22] = tested on: UACC-62 melanoma
[23] = tested on: A549 NSCLC
[24] = tested on: M19-MEL melanoma
[25] = tested on: U251 CNS
[26] = tested on: RXF 393 renal
[27] = tested on: OVCAR-3 ovarian
[28] = tested on: HCT-15 colon
[29] = tested on: SN12C renal
[30] = tested on: OVCAR-4 ovarian
[31] = tested on: MALME-3M melanoma
[32] = tested on: OVCAR-8 ovarian
[33] = tested on: HCT-116 colon
[34] = tested on: TK-10 renal
[35] = tested on: SNB-75 CNS
[36] = tested on: SF-539 CNS
[37] = tested on: SK-MEL-28 melanoma
[38] = tested on: SF-268 CNS
[39] = tested on: DMS 114 small cell lung
[40] = tested on: UACC-257 melanoma
[41] = tested on: XF 498 CNS
[42] = tested on: RPMI-8226 leukemia
[43] = tested on: A498 renal
[44] = tested on: ACHN renal
[45] = tested on: M14 melanoma
[46] = tested on: K-562 leukemia
[47] = tested on: COLO 205 colon
[48] = tested on: LOX IMVI melanoma
[49] = tested on: SW-620 colon
[50] = tested on: IGROV1 ovarian
[51] = tested on: HT29 colon
[52] = tested on: SNB-19 CNS
[53] = tested on: NCI-H522 lung
[54] = tested on: CAKI-1 renal
[55] = tested on: NCI-H226 lung
[56] = tested on: UO-31 renal
[57] = tested on: KM20L2 colon
[58] = tested on: OVCAR-5 ovarian

## Nc1ccc(C(c2ccccc2)(c2ccccc2)c2ccccc2)cc1
[1]
  TGI: > 100 µM
[2]
  TGI: > 100 µM
[3]
  TGI: > 100 µM
[4]
  TGI: 75.8 µM
[5]
  TGI: > 100 µM
[6]
  TGI: 88.4 µM
[7]
  TGI: > 100 µM
[8]
  TGI: > 100 µM
[9]
  TGI: 91.6 µM
[10]
  TGI: > 100 µM
[11]
  TGI: > 100 µM
[12]
  TGI: 31.1 µM
[13]
  TGI: 35.7 µM
[14]
  TGI: > 100 µM
[15]
  TGI: > 100 µM
[16]
  TGI: 34.4 µM
[17]
  TGI: > 100 µM
[18]
  TGI: > 100 µM
[19]
  TGI: 77 µM
[20]
  TGI: > 100 µM
[21]
  TGI: > 100 µM
[22]
  TGI: 41.3 µM
[23]
  TGI: > 100 µM
[24]
  TGI: > 100 µM
[25]
  TGI: 62.1 µM
[26]
  TGI: 56 µM
[27]
  TGI: > 100 µM
[28]
  TGI: > 100 µM
[29]
  TGI: > 100 µM
[30]
  TGI: > 100 µM
[31]
  TGI: > 100 µM
[32]
  TGI: > 100 µM
[33]
  TGI: > 100 µM
[34]
  TGI: 95.3 µM
[35]
  TGI: 53.9 µM
[36]
  TGI: > 100 µM
[37]
  TGI: 56.1 µM
[38]
  TGI: > 100 µM
[39]
  TGI: > 100 µM
[40]
  TGI: > 100 µM
[41]
  TGI: 41.1 µM
[42]
  TGI: > 100 µM
[43]
  TGI: > 100 µM
[44]
  TGI: > 100 µM
[45]
  TGI: 30.1 µM
[46]
  TGI: > 100 µM
[47]
  TGI: > 100 µM
[48]
  TGI: > 100 µM
[49]
  TGI: > 100 µM
[50]
  TGI: > 100 µM
[51]
  TGI: > 100 µM

## CCc1cccc(C)c1NC(=O)C1=C(C)NC(C)=C(C(=O)Nc2c(C)cccc2CC)C1c1ccc([N+](=O)[O-])cc1
[1]
  TGI: > 100 µM
[2]
  TGI: > 100 µM
[3]
  TGI: > 100 µM
[4]
  TGI: > 100 µM
[5]
  TGI: > 100 µM
[6]
  TGI: > 100 µM
[7]
  TGI: > 100 µM
[8]
  TGI: > 100 µM
[9]
  TGI: 49.5 µM
[10]
  TGI: > 100 µM
[11]
  TGI: > 100 µM
[12]
  TGI: 30.1 µM
[13]
  TGI: > 100 µM
[14]
  TGI: > 100 µM
[16]
  TGI: > 100 µM
[17]
  TGI: 46.6 µM
[18]
  TGI: > 100 µM
[19]
  TGI: > 100 µM
[20]
  TGI: > 100 µM
[21]
  TGI: > 100 µM
[52]
  TGI: > 100 µM
[23]
  TGI: > 100 µM
[53]
  TGI: 68.3 µM
[24]
  TGI: > 100 µM
[25]
  TGI: > 100 µM
[26]
  TGI: > 100 µM
[27]
  TGI: > 100 µM
[29]
  TGI: > 100 µM
[30]
  TGI: > 100 µM
[31]
  TGI: > 100 µM
[32]
  TGI: > 100 µM
[54]
  TGI: 89.6 µM
[34]
  TGI: > 100 µM
[35]
  TGI: > 100 µM
[36]
  TGI: > 100 µM
[37]
  TGI: > 100 µM
[55]
  TGI: > 100 µM
[56]
  TGI: > 100 µM
[57]
  TGI: > 100 µM
[58]
  TGI: > 100 µM
[38]
  TGI: > 100 µM
[40]
  TGI: > 100 µM
[41]
  TGI: 66.9 µM
[42]
  TGI: 57.3 µM
[43]
  TGI: > 100 µM
[44]
  TGI: > 100 µM
[45]
  TGI: > 100 µM
[46]
  TGI: > 100 µM
[47]
  TGI: > 100 µM
[48]
  TGI: > 100 µM
[49]
  TGI: > 100 µM
[50]
  TGI: > 100 µM
[51]
  TGI: > 100 µM
